These results are taken from paper PMC4143292, “An Enzymatic Platform for the Synthesis of Isoprenoid Precursors” (PLoS ONE, 2014).

Structures are written as SMILES.

This assay addresses T1, DPM-DC (diphosphomevalonate decarboxylase) (Streptococcus pneumoniae, UniProt A0A0H2UNP0).
T1 construct: gene mvaD; N-terminal His9-GST tag removed with PreScission protease; expressed in E. coli BL21(DE3)
T1 sequence (A0A0H2UNP0 1-317): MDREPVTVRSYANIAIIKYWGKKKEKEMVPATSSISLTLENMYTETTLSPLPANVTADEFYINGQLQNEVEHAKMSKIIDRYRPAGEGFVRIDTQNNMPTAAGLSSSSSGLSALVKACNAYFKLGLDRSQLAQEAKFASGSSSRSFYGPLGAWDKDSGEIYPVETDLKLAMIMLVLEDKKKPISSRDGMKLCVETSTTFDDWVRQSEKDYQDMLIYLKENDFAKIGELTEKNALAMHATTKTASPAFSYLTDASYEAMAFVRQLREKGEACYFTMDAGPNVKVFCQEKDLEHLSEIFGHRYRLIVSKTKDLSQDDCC
As to the kind of experiment: PK/LDH-coupled NADH oxidation. Type of assay: biochemical. Conditions: ATP 2.0 mM, MgCl2 1.0 mM + nucleotide, KCl 50 mM, Hepes pH 8.0, 25 C.

On to `C[C@@](O)(CCOP(=O)(O)OP(=O)(O)O)CC(=O)O` [DPM], for which the “PK/LDH-coupled NADH oxidation” value is recorded as “DPM formation was assayed by adding an aliquot the DPM-synthesis reaction into a DPM decarboxylase”.
